Measurements taken from US20240016775A1, “ANTI-CORONAVIRUS APPLICATION OF POLY ADP RIBOSE POLYMERASE INHIBITOR” (FUKANG (SHANGHAI) HEALTH TECHNOLOGY CO., LTD, priority 2020, published 2024).
Like-named read-outs stand apart in the source and are kept apart here.

Tests used:
[1] = system: SARS-CoV-2; experiment: microbe, parasite or virus in culture; type: cell-based; conditions: Vero-E6, MOI 0.05, 48 h
[2] = cited from earlier work
[3] = some healthy subjects, 3 hours after taking the drug; cited from earlier work
[4] = rats, Male, cited from earlier work
[5] = rats, oral 54 mg/kg, cited from earlier work

## CCOC(=O)c1c(CSc2ccccc2)n(C)c2cc(Br)c(O)c(CN(C)C)c12 [Arbidol, arbidol]
[1]; 3 μM
  Inhibiting rate, %: 21.73%
[1]; Severe acute respiratory syndrome coronavirus 2, Vero C1008, 48 h, read-out: Inhibiting rate, %, 3 μM
  inhibition at 3 µM: 21%
[1]; Severe acute respiratory syndrome coronavirus 2, Vero C1008, 48 h, read-out: Inhibiting rate, %, 30 μM
  inhibition at 30 µM: 98.9%
[2]; nausea, diarrhea, dizziness, increased serum transaminases
  Adverse events, share of subjects: about 6.2%
[2]; single oral dose 200 mg
  Peak concentration: 614.1 ± 342.5 ng/mL
[2]; single oral dose 400 mg
  Peak concentration: 904.2 ± 355.6 ng/mL
[2]; single oral dose 600 mg
  Peak concentration: 975.1 ± 661.0 ng/mL
[3]
  Heart rate decrease: 2-24 beats/minute
[4]; oral 18 mg/kg
  AUC0-t: 1956 ± 895 ngh/mL
  AUC0-∞: 2224 ± 1058 ngh/mL
  Cmax: 1002 ± 298 ng/mL
  Tmax: 0.28 h
  t1/2: 3.6 ± 1.2 h
[4]; oral 54 mg/kg
  AUC0-t: 6790 ± 2749 ngh/mL
  AUC0-∞: 7558 ± 2877 ngh/mL
  Cmax: 4711 ± 2361 ng/mL
  Tmax: 0.18 h
  t1/2: 3.3 ± 0.7 h
[5]; 5 min
  Tissue concentration, Brain: 101 ± 67
  Tissue concentration, Heart: 72 ± 47
  Tissue concentration, Kidney: 79 ± 54
  Tissue concentration, Liver: 104 ± 82
  Tissue concentration, Spleen: 48 ± 35
  Tissue concentration, Stomach: 8210 ± 5410
[5]; 15 min
  Tissue concentration, Brain: 50 ± 10
  Tissue concentration, Heart: 132 ± 69
  Tissue concentration, Kidney: 259 ± 190
  Tissue concentration, Liver: 963 ± 290
  Tissue concentration, Spleen: 519 ± 281
  Tissue concentration, Stomach: 23180 ± 10170
[5]; 360 min
  Tissue concentration, Brain: 31 ± 21
  Tissue concentration, Heart: 41 ± 28
  Tissue concentration, Kidney: 58 ± 21
  Tissue concentration, Liver: 262 ± 175
  Tissue concentration, Spleen: 143 ± 51
  Tissue concentration, Stomach: 52750 ± 3059
